Reference: patent publication US7576102B2, “Biaryl substituted nitrogen containing heterocycle inhibitors of LTA4H for treating inflammation” (deCODE genetics ehf, priority 2005, dated 2009)
Where a name gives a salt, the structure may show the parent alone.

Columns and labels:
human LTA4 hydrolase = biological target: T1, human LTA4 hydrolase (Homo sapiens, UniProt P09960); experiment: In vitro assay testing inhibitory activity against purified recombinant human LTA4 hydrolase; type: biochemical; conditions: 200 nM recombinant enzyme, 2 μM LTA4, LTB4 by LC-MS/MS; read-out: IC50(μM) (hLTA4H)
T1 construct: A human LTA4 hydrolase full-length cDNA clone (NM_000895) was purchased from OriGene Technologies; made in house; host or cells: Escherichia coli BL21-AI
T1 sequence (P09960 1-611): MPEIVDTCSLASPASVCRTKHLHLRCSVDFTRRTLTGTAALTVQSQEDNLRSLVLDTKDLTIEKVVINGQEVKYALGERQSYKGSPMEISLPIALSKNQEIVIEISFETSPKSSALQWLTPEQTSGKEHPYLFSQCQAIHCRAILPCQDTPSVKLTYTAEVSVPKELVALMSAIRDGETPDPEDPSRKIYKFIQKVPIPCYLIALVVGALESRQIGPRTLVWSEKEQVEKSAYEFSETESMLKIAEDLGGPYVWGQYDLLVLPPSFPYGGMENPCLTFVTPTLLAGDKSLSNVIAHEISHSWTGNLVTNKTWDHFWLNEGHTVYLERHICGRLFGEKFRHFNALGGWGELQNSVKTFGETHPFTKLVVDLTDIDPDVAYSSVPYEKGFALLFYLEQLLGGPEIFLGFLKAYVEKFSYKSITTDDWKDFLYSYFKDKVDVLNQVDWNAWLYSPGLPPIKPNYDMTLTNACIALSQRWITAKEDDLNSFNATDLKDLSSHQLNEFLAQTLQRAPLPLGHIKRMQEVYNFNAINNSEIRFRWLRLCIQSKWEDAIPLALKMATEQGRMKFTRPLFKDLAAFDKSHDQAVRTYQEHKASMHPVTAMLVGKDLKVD
From the text: (1) In vitro Assay Testing Inhibitory Activity Against Purified Recombinant Human LTA4 Hydroase:
A human LTA4 hydrolase full-length cDNA clone (NM_000895) was purchased from OriGene Technologies (Rockville, Md.). The gene was amplified by polmerase chain reaction and transferred via pDONR201 into the bacterial expression vector pDEST17 by recombination (both plasmids from Invitrogen, Carlsbad, Calif.). The resulting construct was transformed into Escherichia coli BL21-AI (Invitrogen), and expression was induced by chemical induction with arabinose. The recombinant enzyme was purified by chromatography on a FPLC system (Amersham Biosciences, Uppsala, Sweden) using immobilized metal affinity chromatography (Ni-NTA Superflow, Qiagen, Hilden, Germany) and anion exchange chromatography (MonoQ HR 10/10, Amersham Biosciences).
The compounds of the invention were incubated in a series of dilutions with 200 nM of recombinant enzyme in assay buffer (100 mM Tris-HCl, 100 mM NaCl, 5 mg/ml fatty-acid free BSA, 10% DMSO, pH 8.0) for 10 min at room temperature to allow binding between LTA4 hydrolase and the inhibitors. LTA4 was prepared by alkaline hydrolysis of LTA4 methyl ester (Biomol, Plymouth Meeting, Pa., or Cayman Chemicals, Ann Arbor, Mich.). A solution of 10 μg of the ester was dried under a nitrogen stream and redissolved in 60 μl of a solution of 80% aceton and 20% 0.25 M NaOH. After incubation for 40 min at room temperature the resulting approximately 500 μM tock of LTA4 was kept at −80° C. for no more than a few days prior to use.
Immediately before the assay, LTA4 was diluted to a concentration of 10 μM in assay buffer (without DMSO) and added to the reaction mixture to a final concentration of 2 μM to initiate the enzyme reaction. After incubation for 120 sec at room temperature, the reaction was stopped by adding 2 volumes of chilled quenching buffer, containing acetonitrile with 1% acetic acid and 225 nM LTB4-d4 (Biomol). The samples were then kept at 4° C. over night to complete protein precipitation and centrifuged for 15 min at 1800 g. LTB4 formed was measured by LC-MS/MS using LTB4-d4 as an internal standard and an external LTB4 standard (Biomol) as reference. Briefly, the analyte was separated from LTB4 isomers formed by spontaneous hydrolysis of LTA4 using isocratic elution (modified protocol from Mueller et al. (1996), J. Biol. Chem. 271, 24345-24348) on a HPLC system (Waters, Milford, Mass.) and analyzed on a tandem quadrupole mass spectrometer (Waters). MRM transitions followed on 2 channels were 335.2>195.3 (LTB4) and 339.2>197.3 (LTB4-d4). Based on the amounts of LTB4 found at each inhibitor concentration, a dose-response curve was fitted to the data and an IC50 value was calculated.

[1] = test system: LTB4 in human whole blood; experiment: Ex vivo assay testing inhibitory activity in human whole blood after stimulation with calcium ionophore (LTB4 by immunoassay); type: cell-based; conditions: 20 μM ionomycin, read-out: IC50(μM) (hWB)
Procedure: (2) Ex vivo Assay Testing Inhibitory Activity in Human Whole Blood After Stimulation with Calcium Ionophor: Human blood was collected in heparin-containing Vacutainer tubes. For each sample, 200 μl of blood were dispensed into a pre-warmed plate and 188 μl of RPMI-1640 medium (Invitrogen) containing 20 μg/ml Indomethacin (Sigma, St. Louis, Mo.) were added. Then 4 μl of a series of compound dilutions (in DMSO) were added, followed by a 15 min incubation at 37° C. with gentle shaking. After that, blood samples were stimulated by adding lonomycin (Calbiochem) to a final concentration of 20 μM. After another incubation at 37° C. for 30 min, samples were centrifuged for 5 min at 1800 g and 4° C. Supernatants were taken and LTB4 concentrations were determined using a commercially available enzyme-linked immunoassay (R&D Systems, Minneapolis, Minn.) according to the manufacturer's instructions. Results obtained for different concentrations of hydrolase inhibitor were then used to fit a dose-response curve and calculate an IC50 value.

[2] = test system: ionophore-induced LTB4 production; conditions: oral administration; cited from earlier work
colitis symptoms = conditions: eight weeks of treatment; cited from earlier work
[3] = test system: ionophore-induced LTB4 production; conditions: oral administration; cited from earlier work; remark: listed apart in the source

Compound	IC50 (human LTA4 hydrolase)	other results
c1ccc(Cc2ccc(O[C@H]3CCNC3)cc2)cc1 [Example 1, (S) 3-(4-Benzyl-phenoxy)-pyrrolidine hydrochloride salt]	< 5 µM	IC50 [1]: < 5 µM
c1ccc(Cc2ccc(O[C@@H]3CCNC3)cc2)cc1 [Example 2, (R) 3-(4-Benzyl-phenoxy)-pyrrolidine hydrochloride salt]	< 5 µM	IC50 [1]: < 5 µM
c1ccc(Oc2ccc(OC3CCNCC3)cc2)cc1 [Example 3, 4-(4-Phenoxy-phenoxy)-piperidine hydrochloride salt]	< 5 µM	IC50 [1]: < 5 µM
O=C(O)CCCN1CC[C@@H](Oc2ccc(Cc3ccccc3)cc2)C1 [Example 4, 4-[(R)-3-(4-Benzyl-phenoxy)-pyrrolidin-1-yl]-butyric acid hydrochloride salt]	< 5 µM	–
O=C(O)CCN1CCC(Oc2ccc(Oc3ccccc3)cc2)CC1 [Example 5, 3-[4-(4-Phenoxy-phenoxy)-piperidin-1-yl]-propionic acid]	< 5 µM	–
O=C(O)CCCN1CCC(Oc2ccc(Oc3ccccc3)cc2)CC1 [Example 6, 4-[4-(4-Phenoxy-phenoxy)-piperidin-1-yl]-butyric acid hydrochloride salt]	< 5 µM	–
FC(F)(F)c1ccc(Oc2ccc(OC3CCNCC3)cc2)cc1 [Example 7, 4-[4-(4-Trifluoromethyl-phenoxy)-phenoxy]-piperidine hydrochloride salt]	< 5 µM	–
c1ccc(-c2ccc(Oc3ccc(OC4CCNCC4)cc3)cc2)cc1 [Example 8, 4-[4-(Biphenyl-4-yloxy)-phenoxy]-piperidine hydrochloride salt]	< 5 µM	IC50 [1]: < 5 µM
FC(F)(F)Oc1ccc(Oc2ccc(OC3CCNCC3)cc2)cc1 [Example 9, 4-[4-(4-Trifluoromethoxy-phenoxy)-phenoxy]-piperidine hydrochloride]	5 to 20 µM	–
Clc1ccc(Oc2ccc(OC3CCNCC3)cc2)cc1 [Example 10, 4-[4-(4-Chloro-phenoxy)-phenoxy]-piperidine hydrochloride]	< 5 µM	–
c1ccc(Oc2ccc(O[C@@H]3CCNC3)cc2)cc1 [Example 11, (R)-3-(4-Phenoxy-phenoxy)-pyrrolidine hydrochloride]	< 5 µM	–
O=C(O)CCCN1CC[C@@H](Oc2ccc(Oc3ccccc3)cc2)C1 [Example 12, 4-[(R)-3-(4-Phenoxy-phenoxy)-pyrrolidin-1-yl]-butyric acid hydrogen chloride]	< 5 µM	–
NC(=O)CCCN1CC[C@@H](Oc2ccc(Oc3ccccc3)cc2)C1 [Example 13, 4-[(R)-3-(4-Phenoxy-phenoxy)-pyrrolidin-1-yl]-butyramide]	< 5 µM	–
O=C(O)CCCN1CC[C@@H](Oc2ccc(Oc3ccc(Cl)cc3)cc2)C1 [Example 14, 4-{(R)-3-[4-(4-Chloro-phenoxy)-phenoxy]-pyrrolidin-1-yl}-butyric acid HCl]	< 5 µM	–
CN(CCCOc1ccc(Cc2ccccc2)cc1)CCC(=O)O.Cl [SC57461]	–	inhibition of ionophore-induced LTB4 production in rat peritoneum in vivo [2]: inhibition of ionophore-induced LTB4 production; colitis symptoms in a primate model (colitis symptoms): significantly improved colitis symptoms; inhibition of ionophore-induced LTB4 production in mouse blood ex vivo [3]: inhibition of ionophore-induced LTB4 production
